Experiment in all cases: receptor-mediated PP2C (HAB1) inhibition in vitro assay
What all share (assay type): biochemical

One test addresses T1, PYL10 (Arabidopsis thaliana, UniProt Q8H1R0).
T1 construct: 6X-His; made in house; host or cells: E. coli BL21[DE3]pLysS
T1 sequence (Q8H1R0 1-183): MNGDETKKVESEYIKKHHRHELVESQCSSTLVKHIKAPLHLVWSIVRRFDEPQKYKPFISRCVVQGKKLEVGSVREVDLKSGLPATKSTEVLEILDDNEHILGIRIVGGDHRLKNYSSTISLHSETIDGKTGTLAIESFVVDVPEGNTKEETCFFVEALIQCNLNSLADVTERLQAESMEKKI
T1 sequence (Q9CAJ0 23-511 partner): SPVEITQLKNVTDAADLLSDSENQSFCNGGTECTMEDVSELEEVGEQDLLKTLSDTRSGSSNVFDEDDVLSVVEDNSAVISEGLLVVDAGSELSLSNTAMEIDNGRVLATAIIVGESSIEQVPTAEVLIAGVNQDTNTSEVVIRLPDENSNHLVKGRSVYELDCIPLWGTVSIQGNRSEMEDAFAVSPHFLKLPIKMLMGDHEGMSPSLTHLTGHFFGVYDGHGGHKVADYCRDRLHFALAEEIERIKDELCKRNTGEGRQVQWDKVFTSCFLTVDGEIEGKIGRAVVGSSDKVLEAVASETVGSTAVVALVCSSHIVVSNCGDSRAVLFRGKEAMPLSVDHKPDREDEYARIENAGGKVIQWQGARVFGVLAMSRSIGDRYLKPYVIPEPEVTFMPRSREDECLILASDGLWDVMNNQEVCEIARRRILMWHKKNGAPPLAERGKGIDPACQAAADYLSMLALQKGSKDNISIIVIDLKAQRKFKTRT
The note with it: for remaining activity at 50 µM: 50 uM of the test compound; for IC50: Table XII-B, calculated from dose curves, read-out: PP2C Activity (IC50 in uM) PYL10. The method, boiled down:
(§1)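 Fluorogenic readout: 4-methylumbelliferyl-phosphate hydrolysis by 50 nM GST-HAB1 plus 2:1 His-receptor; Tris-OAc pH 7.9, NaCl, 1 mM MnCl2, β-ME. Compounds at 25 μM or 50 uM single dose; IC50 from dose curves for selected compounds.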

For another test, the target named is T2, PYL11 (Arabidopsis thaliana, UniProt Q9FJ50).
T2 construct: made in house; host or cells: E. coli BL21[DE3]pLysS
T2 sequence (Q9FJ50 1-161): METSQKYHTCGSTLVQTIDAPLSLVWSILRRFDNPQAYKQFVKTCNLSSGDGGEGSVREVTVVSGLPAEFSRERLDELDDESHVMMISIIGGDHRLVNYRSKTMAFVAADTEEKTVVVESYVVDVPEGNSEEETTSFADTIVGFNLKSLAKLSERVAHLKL
T2 sequence (Q9CAJ0 23-511 partner): T1 sequence (Q9CAJ0 23-511 partner)
The settings on record: for remaining activity at 50 µM: 50 uM of the test compound; for IC50: Table XII-B, calculated from dose curves, read-out: PP2C Activity (IC50 in uM) PYL11. The procedure, abridged: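 His-tagged receptors (MBP fusion for PYL11) at 2:1 ratio to 50 nM GST-HAB1 in 100 mM Tris-OAc pH 7.9, 100 mM NaCl, 1 mM MnCl2; 4-methylumbelliferyl-phosphate fluorogenic substrate. Compounds at 50 uM (ABA 10 uM); IC50 from dose curves for selected compounds.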

A further test deals with T3, PYL4 (Arabidopsis thaliana, UniProt O80920).
T3 construct: 6X-His; made in house; host or cells: E. coli BL21[DE3]pLysS
T3 sequence (O80920 1-207): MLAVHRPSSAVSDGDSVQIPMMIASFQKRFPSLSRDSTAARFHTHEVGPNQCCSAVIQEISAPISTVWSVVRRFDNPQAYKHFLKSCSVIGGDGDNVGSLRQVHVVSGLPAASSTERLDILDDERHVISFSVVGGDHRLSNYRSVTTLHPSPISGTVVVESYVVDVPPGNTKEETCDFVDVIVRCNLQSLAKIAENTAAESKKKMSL
T3 sequence (Q9CAJ0 23-511 partner): T1 sequence (Q9CAJ0 23-511 partner)
The note with it: for remaining activity at 50 µM: 50 uM of the test compound; for IC50: Table XII-B, calculated from dose curves, read-out: PP2C Activity (IC50 in uM) PYL4. The procedure, abridged:
as §1

In the next test the target is T4, PYL6 (Arabidopsis thaliana, UniProt Q8S8E3).
T4 construct: 6X-His; made in house; host or cells: E. coli BL21[DE3]pLysS
T4 sequence (Q8S8E3 1-215): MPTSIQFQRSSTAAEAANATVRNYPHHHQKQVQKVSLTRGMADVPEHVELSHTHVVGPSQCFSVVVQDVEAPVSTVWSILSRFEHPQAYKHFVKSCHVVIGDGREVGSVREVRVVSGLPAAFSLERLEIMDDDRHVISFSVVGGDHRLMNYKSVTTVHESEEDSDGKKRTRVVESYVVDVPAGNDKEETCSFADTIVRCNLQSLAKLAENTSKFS
T4 sequence (Q9CAJ0 23-511 partner): T1 sequence (Q9CAJ0 23-511 partner)
The settings on record: for remaining activity at 50 µM: 50 uM of the test compound; for IC50: Table XII-B, calculated from dose curves, read-out: PP2C Activity (IC50 in uM) PYL6. The method, boiled down:
as §1

In another test the target is T5, PYL8 (Arabidopsis thaliana, UniProt Q9FGM1).
T5 construct: 6X-His; made in house; host or cells: E. coli BL21[DE3]pLysS
T5 sequence (Q9FGM1 1-188): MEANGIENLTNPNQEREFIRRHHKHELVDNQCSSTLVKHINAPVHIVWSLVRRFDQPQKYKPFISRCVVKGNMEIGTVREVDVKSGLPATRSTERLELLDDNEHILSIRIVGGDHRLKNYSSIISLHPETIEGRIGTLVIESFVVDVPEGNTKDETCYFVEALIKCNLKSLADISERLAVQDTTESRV
T5 sequence (Q9CAJ0 23-511 partner): T1 sequence (Q9CAJ0 23-511 partner)
The settings on record: for remaining activity at 50 µM: 50 uM of the test compound; for IC50: Table XII-B, calculated from dose curves, read-out: PP2C Activity (IC50 in uM) PYL8. The procedure, abridged: as §1

For the next test, the target named is T6, PYL9 (Arabidopsis thaliana, UniProt Q84MC7).
T6 construct: 6X-His; made in house; host or cells: E. coli BL21[DE3]pLysS
T6 sequence (Q84MC7 1-187): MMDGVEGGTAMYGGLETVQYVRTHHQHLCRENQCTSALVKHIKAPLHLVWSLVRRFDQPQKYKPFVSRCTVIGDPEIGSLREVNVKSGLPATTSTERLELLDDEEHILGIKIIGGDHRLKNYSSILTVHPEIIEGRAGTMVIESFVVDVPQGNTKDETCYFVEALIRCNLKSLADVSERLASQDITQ
T6 sequence (Q9CAJ0 23-511 partner): T1 sequence (Q9CAJ0 23-511 partner)
The note with it: for remaining activity at 50 µM: 50 uM of the test compound; for IC50: Table XII-B, calculated from dose curves, read-out: PP2C Activity (IC50 in uM) PYL9. The method, boiled down: as §1

By remaining activity is commonly meant the signal under treatment as a percentage of the control signal. The IC50 is the concentration that gives 50% inhibition. For `N#Cc1ccc(CS(=O)(=O)NC(=O)C2(c3ccccc3)CCCCC2)cc1` [Compound 69, N-[(4-Cyanophenyl)methanesulfonyl]-1-phenylcyclohexane-1-carboxamide], the remaining activity at 50 µM on PYL10 is 27.3%; at PYL11, 13.5%; at PYL4, 95%; on PYL6 it was 72.6%; on PYL8, 14.7%; on PYL9 it was 5.8%. For the same molecule, the IC50 was 1.69 µM at PYL10; 2.53 µM at PYL11; > 50 µM at PYL4; > 50 µM on PYL6; 0.75 µM at PYL8; 0.135 µM at PYL9.
Turning to `N#Cc1ccc(CS(=O)(=O)NC(=O)C(c2ccccc2)c2ccccc2)cc1` [Compound 71, N-[(4-Cyanophenyl)methanesulfonyl]-2,2-diphenylacetamide], the remaining activity at 50 µM at PYL10 was 86.5%; on PYL11, 43.2%; on PYL4, 93.2%; at PYL6, 96.9%; at PYL8, 96.8%; on PYL9, 81.8%. The IC50 on PYL10 is > 50 µM; at PYL11, 25 µM; on PYL4, > 50 µM; on PYL6 it was > 50 µM; at PYL8, > 50 µM; at PYL9 it was > 50 µM.
Turning to `N#Cc1ccc(CS(=O)(=O)NC(=O)C(c2ccc(F)cc2)c2ccc(F)cc2)cc1` [Compound 72, N-[(4-Cyanophenyl)methanesulfonyl]-2,2-bis(4-fluorophenyl)acetamide], the remaining activity at 50 µM turned out to be 98% on PYL10; 37.4% on PYL11; 90.1% on PYL4; 95.1% at PYL6; 98.5% on PYL8; 85.8% on PYL9. The IC50 on PYL10 is > 50 µM; at PYL11 it was 25 µM; at PYL4, > 50 µM; at PYL6, > 50 µM; on PYL8, > 50 µM; at PYL9, > 50 µM.
For the molecule `N#Cc1ccc(CS(=O)(=O)NC(=O)C(C2CCCCC2)C2CCCCC2)cc1` [Compound 73, N-[(4-Cyanophenyl)methanesulfonyl]-2,2-cyclohexylacetamide], the remaining activity at 50 µM at PYL10 came out at 85.7%; on PYL11, 26.9%; on PYL4, 98.2%; on PYL6, 91%; on PYL8 it was 66.1%; on PYL9 it was 56.3%. The IC50 at PYL10 is > 50 µM; on PYL11, 22.4 µM; at PYL4 it was > 50 µM; at PYL6, > 50 µM; at PYL8 it was > 50 µM; on PYL9, > 50 µM.
On to `N#Cc1ccc(CS(=O)(=O)NC(=O)C2(c3cccs3)CCCCC2)cc1` [Compound 75, N-[(4-Cyanophenyl)methanesulfonyl]-1-(thiophen-2-yl)cyclohexane-1-carboxamide], for which the remaining activity at 50 µM on PYL10 amounted to 27%; on PYL11, 9.8%; on PYL4 it was 98%; on PYL6 it was 57.2%; on PYL8, 14.9%; on PYL9 it was 6.9%. Moreover, the IC50 is 0.38 µM at PYL10; 0.39 µM at PYL11; > 50 µM at PYL4; > 50 µM at PYL6; 0.134 µM at PYL8; 0.083 µM on PYL9.
Take `N#Cc1ccc(CS(=O)(=O)NC(=O)C2(c3ccsc3)CCCCC2)cc1` [Compound 78, N-[(4-Cyanophenyl)methanesulfonyl]-1-(thiophen-3-yl)cyclohexane-1-carboxamide]: the remaining activity at 50 µM at PYL10 was determined as 25.6%; on PYL11 it was 9.9%; at PYL4 it was 102%; at PYL6, 44.9%; on PYL8 it was 14.3%; on PYL9, 6.1%. Moreover, the IC50 on PYL10 is 0.25 µM; on PYL11 it was 0.19 µM; on PYL4, > 50 µM; on PYL6 it was 25 µM; on PYL8 it was 0.073 µM; on PYL9, 0.038 µM.
`N#Cc1ccc(CS(=O)(=O)NC(=O)C2(c3ccsc3)CCCCC2)cc1Br` [Compound 106, N-[(4-Cyano-3-bromophenyl)methanesulfonyl]-1-(thiophen-3-yl)cyclohexane-1-carboxamide]: the remaining activity at 50 µM at PYL10 stood at 22.5%; at PYL11, 7.8%; on PYL4, 89.2%; at PYL6, 17.6%; at PYL8, 13.6%; at PYL9 it was 5.4%. Further, the half-maximal inhibitory concentration (IC50) at PYL10 is 0.022 µM; on PYL11, 0.065 µM; on PYL4 it was > 50 µM; on PYL6 it was 7.84 µM; at PYL8, 0.037 µM; at PYL9, 0.014 µM.

The record behind these values is US10757937B2, “Sulfonamides that activate ABA receptors” (The Regents of the University of California, priority 2014, dated 2020).
